# In patent US20220128542A1, “TREATMENT EFFICIENCY EVALUATION” (TX MEDIC AB, priority 2019, published 2022):
# Test system: brain of rats subjected to severe traumatic brain injury (sTBI)
# Experiment: Ingenuity pathway analysis of differentially regulated genes after sTBI (canonical pathways, diseases and molecular functions; Example 4)
# Design: species or system rat
# Protocol: Pathway analysis of the differentially regulated genes was carried out using the Ingenuity pathway analysis package. The analysis was performed with special reference to pathways and molecular processes and diseases associated with neurodegenerative disease, including dementia, Alzheimer's disease, ALS, TBI and stroke, and with scarring and fibrosis, including glaucoma and normal pressure hydrocephalus (NPH) after subarachnoid haemorrhage.
# [1] = TBI + 5 mg/kg LMW-DS, 7 days after TBI
# [2] = TBI + 15 mg/kg LMW-DS, 2 days after TBI
# [3] = TBI + 15 mg/kg LMW-DS, 7 days after TBI, relative to control
# [4] = TBI + 15 mg/kg LMW-DS, 7 days after TBI
# [5] = TBI + 15 mg/kg repeat dose LMW-DS, 7 days after TBI
# [6] = TBI + 15 mg/kg repeated dose LMW-DS, 7 days after TBI, relative to control
# [7] = TBI + 15 mg/kg repeated dose LMW-DS, 7 days after TBI
substance,measurement,setting,value
sodium salt of dextran sulfate [LMW-DS],Ingenuity canonical pathway: Acute Phase Response Signaling,[1],Activated
same,Ingenuity canonical pathway: Adrenomedullin signaling pathway,[1],Inhibited
same,Ingenuity canonical pathway: Cardiac Hypertrophy Signaling,[1],Activated
same,Ingenuity canonical pathway: Colorectal Cancer Metastasis Signaling,[1],Inhibited
same,Ingenuity canonical pathway: Dendritic Cell Maturation,[1],Activated
same,Ingenuity canonical pathway: ERK5 Signaling,[1],Inhibited
same,Ingenuity canonical pathway: ERK/MAPK Signaling,[1],Activated
same,Ingenuity canonical pathway: Endothelin-1 Signaling,[1],Activated
same,Ingenuity canonical pathway: Fcγ Receptor-mediated Phagocytosis in Macrophages and Monocytes,[1],Activated
same,Ingenuity canonical pathway: GNRH Signaling,[1],Activated
same,Ingenuity canonical pathway: HMGB1 Signaling,[1],Activated
same,Ingenuity canonical pathway: IL-1 Signaling,[1],Activated
same,Ingenuity canonical pathway: IL-6 Signaling,[1],Activated
same,Ingenuity canonical pathway: IL-8 Signaling,[1],Activated
same,Ingenuity canonical pathway: ILK Signaling,[1],Activated
same,Ingenuity canonical pathway: Leukocyte Extravasation Signaling,[1],Activated
same,Ingenuity canonical pathway: Neuroinflammation Signaling Pathway,[1],Activated
same,Ingenuity canonical pathway: Osteoarthritis Pathway,[1],Inhibited
same,Ingenuity canonical pathway: PI3K Signaling in B Lymphocytes,[1],Activated
same,Ingenuity canonical pathway: PKCO Signaling in T Lymphocytes,[1],Activated
same,Ingenuity canonical pathway: PPAR Signaling,[1],Inhibited
same,Ingenuity canonical pathway: Phospholipase C Signaling,[1],Activated
same,Ingenuity canonical pathway: Production of Nitric Oxide and Reactive Oxygen Species in Macrophages,[1],Activated
same,Ingenuity canonical pathway: Protein Kinase A Signaling,[1],Inhibited
same,Ingenuity canonical pathway: Role of NFAT in Regulation of the Immune Response,[1],Activated
same,Ingenuity canonical pathway: Signaling by Rho Family GTPases,[1],Activated
same,Ingenuity canonical pathway: Synaptic Long Term Depression,[1],Activated
same,Ingenuity canonical pathway: Wnt/β-catenin Signaling,[1],Inhibited
same,Ingenuity canonical pathway: cAMP-mediated signaling,[1],Inhibited
same,Ingenuity canonical pathway: mTOR Signaling,[1],Activated
same,Effect on diseases or functions annotation: Apoptosis,[2],Inhibited
same,Effect on diseases or functions annotation: Apoptosis of tumor cell lines,[2],Activated
same,Effect on diseases or functions annotation: Behavior,[2],Inhibited
same,Effect on diseases or functions annotation: Cell death,[2],Inhibited
same,Effect on diseases or functions annotation: Necrosis,[2],Inhibited
same,Effect on diseases or functions annotation: Quantity of blood cells,[2],Inhibited
same,Effect on diseases or functions annotation: Quantity of cells,[2],Inhibited
same,Effect on diseases or functions annotation: Quantity of lymphocytes,[2],Inhibited
same,"z score, Ingenuity canonical pathway: Endothelin-1 Signaling",[3],1
same,"z score, Ingenuity canonical pathway: Phospholipase C Signaling",[3],2
same,"z score, Ingenuity canonical pathway: cAMP-mediated signaling",[3],1
same,Diseases or functions annotation: Abdominal neoplasm,[4],Inhibited
same,Diseases or functions annotation: Apoptosis,[4],Inhibited
same,Diseases or functions annotation: Apoptosis of tumor cell lines,[4],Activated
same,Diseases or functions annotation: Cancer,[4],Activated
same,Diseases or functions annotation: Carcinoma,[4],Activated
same,Diseases or functions annotation: Cell death,[4],Inhibited
same,Diseases or functions annotation: Cell death of tumor cell lines,[4],Activated
same,Diseases or functions annotation: Cell movement of myeloid cells,[4],Activated
same,Diseases or functions annotation: Development of carcinoma,[4],Activated
same,Diseases or functions annotation: Development of connective tissue cells,[4],Activated
same,Diseases or functions annotation: Development of malignant tumor,[4],Inhibited
same,Diseases or functions annotation: Differentiation of bone cells,[4],Activated
same,Diseases or functions annotation: Epithelial neoplasm,[4],Activated
same,Diseases or functions annotation: Extracranial solid tumor,[4],Activated
same,Diseases or functions annotation: Frequency of tumor,[4],Inhibited
same,Diseases or functions annotation: Genitourinary tumor,[4],Activated
same,Diseases or functions annotation: Incidence of tumor,[4],Inhibited
same,Diseases or functions annotation: Leukocyte migration,[4],Activated
same,Diseases or functions annotation: Necrosis,[4],Activated
same,Diseases or functions annotation: Non-melanoma solid tumor,[4],Activated
same,Diseases or functions annotation: Quantity of cells,[4],Activated
same,Diseases or functions annotation: Solid tumor,[4],Activated
same,Diseases or functions annotation: Transcription,[4],Activated
same,Diseases or functions annotation: Transcription of RNA,[4],Activated
same,Diseases or functions annotation: Tumorigenesis of epithelial neoplasm,[4],Activated
same,Diseases or functions annotation: Tumorigenesis of tissue,[4],Activated
same,Ingenuity canonical pathway: Endothelin-1 Signaling,[4],Activated
same,Ingenuity canonical pathway: Phospholipase C Signaling,[4],Activated
same,Ingenuity canonical pathway: cAMP-mediated signaling,[4],Activated
same,Diseases or functions annotation: Abdominal cancer,[5],Inhibited
same,Diseases or functions annotation: Abdominal neoplasm,[5],Inhibited
same,Diseases or functions annotation: Adenocarcinoma,[5],Inhibited
same,Diseases or functions annotation: Branching of cells,[5],Activated
same,Diseases or functions annotation: Carcinoma,[5],Inhibited
same,Diseases or functions annotation: Cell movement,[5],Activated
same,Diseases or functions annotation: Cell-cell contact,[5],Activated
same,Diseases or functions annotation: Concentration of hormone,[5],Activated
same,Diseases or functions annotation: Concentration of lipid,[5],Inhibited
same,Diseases or functions annotation: Dendritic growth/branching,[5],Inhibited
same,Diseases or functions annotation: Development of connective tissue cells,[5],Inhibited
same,Diseases or functions annotation: Development of gap junctions,[5],Activated
same,Diseases or functions annotation: Development of neurons,[5],Activated
same,Diseases or functions annotation: Developmental process of synapse,[5],Activated
same,Diseases or functions annotation: Differentiation of bone cells,[5],Inhibited
same,Diseases or functions annotation: Differentiation of connective tissue cells,[5],Inhibited
same,Diseases or functions annotation: Digestive organ tumor,[5],Inhibited
same,Diseases or functions annotation: Digestive system cancer,[5],Inhibited
same,Diseases or functions annotation: Epithelial neoplasm,[5],Inhibited
same,Diseases or functions annotation: Extracranial solid tumor,[5],Activated
same,Diseases or functions annotation: Formation of cellular protrusions,[5],Activated
same,Diseases or functions annotation: Formation of intercellular junctions,[5],Activated
same,Diseases or functions annotation: Gastrointestinal tumor,[5],Inhibited
same,Diseases or functions annotation: Hematologic cancer,[5],Inhibited
same,Diseases or functions annotation: Hematopoietic neoplasm,[5],Inhibited
same,Diseases or functions annotation: Learning,[5],Activated
same,Diseases or functions annotation: Microtubule dynamics,[5],Activated
same,Diseases or functions annotation: Migration of cells,[5],Activated
same,Diseases or functions annotation: Morphogenesis of neurons,[5],Activated
same,Diseases or functions annotation: Neurotransmission,[5],Activated
same,Diseases or functions annotation: Non-hematological solid tumor,[5],Inhibited
same,Diseases or functions annotation: Non-melanoma solid tumor,[5],Inhibited
same,Diseases or functions annotation: Nonhematologic malignant neoplasm,[5],Inhibited
same,Diseases or functions annotation: Obesity,[5],Activated
same,Diseases or functions annotation: Organization of cytoplasm,[5],Activated
same,Diseases or functions annotation: Organization of cytoskeleton,[5],Activated
same,Diseases or functions annotation: Quantity of Ca^2+,[5],Activated
same,Diseases or functions annotation: Quantity of carbohydrate,[5],Inhibited
same,Diseases or functions annotation: Quantity of cells,[5],Activated
same,Diseases or functions annotation: Seizure disorder,[5],Activated
same,Diseases or functions annotation: Size of body,[5],Activated
same,Diseases or functions annotation: Skin lesion,[5],Activated
same,Diseases or functions annotation: Transport of ion,[5],Activated
same,Diseases or functions annotation: Transport of metal,[5],Activated
same,Diseases or functions annotation: Transport of molecule,[5],Activated
same,Diseases or functions annotation: Tumorigenesis of tissue,[5],Inhibited
same,"z score, Ingenuity canonical pathway: 3-phosphoinositide Degradation",[6],2
same,"z score, Ingenuity canonical pathway: Acute Phase Response Signaling",[6],−0.447
same,"z score, Ingenuity canonical pathway: Adrenomedullin signaling pathway",[6],−0.378
same,"z score, Ingenuity canonical pathway: B Cell Receptor Signaling",[6],−0.447
same,"z score, Ingenuity canonical pathway: Ephrin Receptor Signaling",[6],2.236
same,"z score, Ingenuity canonical pathway: Fc Epsilon RI Signaling",[6],−1
same,"z score, Ingenuity canonical pathway: G Beta Gamma Signaling",[6],2.236
same,"z score, Ingenuity canonical pathway: NF-κB Signaling",[6],0.447
same,"z score, Ingenuity canonical pathway: Opioid Signaling Pathway",[6],0.816
same,"z score, Ingenuity canonical pathway: Role of NFAT in Cardiac Hypertrophy",[6],0.447
same,"z score, Ingenuity canonical pathway: Role of NFAT in Regulation of the Immune Response",[6],2.236
same,"z score, Ingenuity canonical pathway: Signaling by Rho Family GTPases",[6],1
same,"z score, Ingenuity canonical pathway: Superpathway of Inositol Phosphate Compounds",[6],2
same,"z score, Ingenuity canonical pathway: Synaptic Long Term Depression",[6],1.342
same,Ingenuity canonical pathway: 3-phosphoinositide Degradation,[7],Activated
same,Ingenuity canonical pathway: Acute Phase Response Signaling,[7],Inhibited
same,Ingenuity canonical pathway: Adrenomedullin signaling pathway,[7],Inhibited
same,Ingenuity canonical pathway: B Cell Receptor Signaling,[7],Inhibited
same,Ingenuity canonical pathway: Ephrin Receptor Signaling,[7],Activated
same,Ingenuity canonical pathway: Fc Epsilon RI Signaling,[7],Inhibited
same,Ingenuity canonical pathway: G Beta Gamma Signaling,[7],Activated
same,Ingenuity canonical pathway: NF-κB Signaling,[7],Activated
same,Ingenuity canonical pathway: Opioid Signaling Pathway,[7],Activated
same,Ingenuity canonical pathway: Role of NFAT in Cardiac Hypertrophy,[7],Activated
same,Ingenuity canonical pathway: Role of NFAT in Regulation of the Immune Response,[7],Activated
same,Ingenuity canonical pathway: Signaling by Rho Family GTPases,[7],Activated
same,Ingenuity canonical pathway: Superpathway of Inositol Phosphate Compounds,[7],Activated
same,Ingenuity canonical pathway: Synaptic Long Term Depression,[7],Activated
